In patent publication US20230382904A1, “SUBSTITUTED 4-([1,2,4]TRIAZOLO[1,5-a]PYRIDIN-6-YL)THIOPHENE-2-CARBOXAMIDE DERIVATIVES AND USE THEREOF” (The Johns Hopkins University, priority 2020, published 2023):

How the values were obtained:
[1] = biological target: DLK (Homo sapiens (Human), UniProt Q12852); experiment: DLK biochemical assay (TR-FRET, MKK7 phosphorylation)
Outline: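 Catalytic-domain DLK (10 nM) phosphorylates His-MKK7 (15 nM) with 60 μM ATP, 90 min at RT, in pH 7.5 HEPES buffer. Phospho-T275/S277 read by TR-FRET (Eu anti-phospho donor, XL665 anti-His acceptor) after 16 h detection, at 37° C. in 1536 or 4° C. in 384 format.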

[2] = biological target: LZK (Homo sapiens (Human), UniProt O43283); experiment: LZK biochemical assay (TR-FRET, MKK7 phosphorylation)
Outline: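 Catalytic-domain LZK (10 nM) phosphorylated His-MKK7 (15 nM) with 15 μM ATP for 90 min at RT. Phospho-T275/S277 detected by Eu-anti-phospho-MKK7/XL665-anti-His TR-FRET after 16 h at 32° C, using the 665/Eu ratio. Buffer: 50 mM Hepes pH 7.5, 10 mM MgCl2, 1 mM DTT.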

Chain of LZK (O43283 168-409): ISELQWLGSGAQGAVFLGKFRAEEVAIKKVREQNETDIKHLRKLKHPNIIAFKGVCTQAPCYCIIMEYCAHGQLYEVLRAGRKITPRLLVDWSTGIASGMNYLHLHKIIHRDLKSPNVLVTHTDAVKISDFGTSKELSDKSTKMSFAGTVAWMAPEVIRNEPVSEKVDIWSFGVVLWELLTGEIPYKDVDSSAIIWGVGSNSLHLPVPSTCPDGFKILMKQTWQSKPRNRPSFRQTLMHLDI
Chain of DLK (Q12852 1-520): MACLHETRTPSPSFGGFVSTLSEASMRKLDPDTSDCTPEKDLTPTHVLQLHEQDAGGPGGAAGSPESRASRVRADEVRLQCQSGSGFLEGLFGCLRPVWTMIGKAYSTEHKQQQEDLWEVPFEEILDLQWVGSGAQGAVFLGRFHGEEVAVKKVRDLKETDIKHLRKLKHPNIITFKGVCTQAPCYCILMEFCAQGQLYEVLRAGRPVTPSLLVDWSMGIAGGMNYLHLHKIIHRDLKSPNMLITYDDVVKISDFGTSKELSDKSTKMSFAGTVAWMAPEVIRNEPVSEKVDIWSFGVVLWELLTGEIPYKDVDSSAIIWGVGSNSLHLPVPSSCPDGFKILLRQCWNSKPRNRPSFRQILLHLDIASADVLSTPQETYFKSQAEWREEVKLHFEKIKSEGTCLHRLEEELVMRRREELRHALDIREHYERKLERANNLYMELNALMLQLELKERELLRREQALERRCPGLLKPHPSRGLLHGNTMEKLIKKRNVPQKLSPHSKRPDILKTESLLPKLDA

Row | Compound | IC50 [1] | IC50 [2]
1 | Cc1sc(C(=O)NCc2ccc(F)cc2)cc1-c1ccc2nc(N)nn2c1 [Compound 305] | > 30000 nM | > 30000 nM
2 | COc1ccc2oc(CNC(=O)c3cc(-c4ccc5nc(N)nn5c4)cs3)nc2c1 [Compound 247] | 800 nM | 3800 nM
3 | CC[C@H](NC(=O)c1cc(-c2cc(-c3nnc([C@@H](C)CO)s3)c3nc(N)nn3c2)cs1)c1ccc(F)cc1 [Compound 401] | 8.1 nM | 115 nM
4 | CCc1nnc(-c2cc(-c3csc(C(=O)N[C@@H](C)c4ccc(F)cc4)c3)cn3nc(N)nc23)o1 [Compound 396] | 310 nM | 980 nM
5 | Cc1nc(C(C)NC(=O)c2cc(-c3ccc4nc(N)nn4c3)cs2)sc1C (centres unmarked) [Compound 334] | 400 nM | 5800 nM
6 | Nc1nc2c(C(F)(F)F)cc(-c3csc(C(=O)NCc4ccc(F)cc4)c3)cn2n1 [Compound 375] | 840 nM | 3300 nM
7 | CC[C@H](NC(=O)c1cc(-c2cc(C(=O)N[C@@H]3CCOC3)c3nc(N)nn3c2)cs1)c1ccccc1 [Compound 104] | 1.7 nM | 30.5 nM
8 | Cc1cccc2oc(CNC(=O)c3cc(-c4ccc5nc(N)nn5c4)cs3)nc12 [Compound 304] | 220 nM | 4300 nM
9 | CC(C)NC(=O)c1cc(-c2csc(C(=O)NC3COC3)c2)cn2nc(N)nc12 [Compound 129] | 290 nM | 800 nM
10 | C[C@H](NC(=O)c1cc(-c2cc(C(=O)NC3CCC3)c3nc(N)nn3c2)cs1)c1ccccc1 [Compound 59] | 4.35 nM | 255 nM
11 | CC[C@H](NC(=O)c1cc(-c2cc(C(=O)N[C@@H](C)CO)c3nc(N)nn3c2)cs1)c1ccccc1 [Compound 77] | 1.8 nM | 36 nM
12 | C[C@H](NC(=O)c1cc(-c2ccc3nc(N)nn3c2)cs1)c1ccc(C(F)(F)F)cc1 [Compound 353] | 210 nM | > 30000 nM
13 | CC[C@H](NC(=O)c1cc(-c2cc(C(=O)N[C@@H](C)CC)n3nc(N)nc3c2)cs1)c1ccc(F)cc1 [Compound 156] | 7.5 nM | 79 nM
14 | CC[C@H](NC(=O)c1cc(-c2cc(C(=O)NC(C)CF)c3nc(N)nn3c2)cs1)c1ccc(F)cc1 (some centres unmarked) [Compound 141] | 10 nM | 63 nM
15 | CC(NC(=O)c1cc(-c2csc(C(=O)NCc3ccc(F)cc3)c2)cn2nc(N)nc12)C(F)(F)F (centres unmarked) [Compound 27] | 58 nM | 99 nM
16 | COc1ccc(CNC(=O)c2cc(-c3ccc4nc(N)nn4c3)cs2)cc1 [Compound 203] | 1010 nM | 13000 nM
17 | Nc1nc2c(C(F)(F)F)cc(-c3csc(C(=O)NCc4ccccc4)c3)cn2n1 [Compound 378] | 1800 nM | 9500 nM
18 | CC[C@H](NC(=O)c1cc(-c2cc(C(=O)NC(C)CF)c3nc(N)nn3c2)cs1)c1ccc(F)cc1 (single isomer, unassigned) [Compound 144-2] | 23 nM | 200 nM
19 | Nc1nc2ccc(-c3csc(C(=O)NCc4ccoc4)c3)cn2n1 [Compound 277] | 480 nM | 18000 nM
20 | C[C@H](NC(=O)c1cc(-c2cc(C(=O)N[C@H]3CCOC3)c3nc(N)nn3c2)cs1)c1ccc(F)cc1 [Compound 98] | 7.5 nM | 60 nM
21 | Nc1nc2ccc(-c3csc(C(=O)N[C@@H](CCO)c4ccc(F)cc4)c3)cn2n1 [Compound 341] | 230 nM | 5100 nM

Row | Compound | IC50 [1] | IC50 [2]
22 | CC(NC(=O)c1cc(-c2ccc3nc(N)nn3c2)cs1)c1ccc(F)cc1 (centres unmarked) [Compound 303] | 130 nM | 1800 nM
23 | C[C@H](NC(=O)c1cc(-c2ccn3nc(N)nc3c2)cs1)c1ccc(F)cc1 [Compound 369] | 230 nM | 1900 nM
24 | Cn1ccnc1CNC(=O)c1cc(-c2ccc3nc(N)nn3c2)cs1 [Compound 241] | 1300 nM | 21000 nM
25 | COc1ccc([C@H](C)NC(=O)c2cc(-c3ccc4nc(N)nn4c3)cs2)cc1 [Compound 354] | 110 nM | > 30000 nM
26 | Nc1nc2ccc(-c3csc(C(=O)NCc4ccc(Cl)cc4)c3)cn2n1 [Compound 225] | 710 nM | 6950 nM
27 | CCOc1ccccc1CNC(=O)c1cc(-c2ccc3nc(N)nn3c2)cs1 [Compound 226] | 670 nM | 5000 nM
28 | COc1cccc(C(C)(C)NC(=O)c2cc(-c3ccc4nc(N)nn4c3)cs2)c1 [Compound 269] | 590 nM | > 30000 nM
29 | CC(O)c1ccccc1NC(=O)c1cc(-c2ccc3nc(N)nn3c2)cs1 (centres unmarked) [Compound 294] | 710 nM | > 30000 nM
30 | CC(NC(=O)c1cc(-c2ccc3nc(N)nn3c2)cs1)c1ccc(OCC(F)F)cc1 (centres unmarked) [Compound 357] | 210 nM | > 30000 nM
31 | Nc1nc2c(C(=O)NC3CC3)cc(-c3csc(C(=O)NCc4ccccc4)c3)cn2n1 [Compound 56] | 120 nM | 2300 nM
32 | Nc1nc2ccc(-c3csc(C(=O)NCC4COCCO4)c3)cn2n1 (centres unmarked) [Compound 209] | 2500 nM | > 30000 nM
33 | Cc1sc(C(=O)NC2CCCCC2)cc1-c1ccc2nc(N)nn2c1 [Compound 312] | > 30000 nM | > 30000 nM
34 | C[C@H](NC(=O)c1cc(-c2ccc3nc(N)nn3c2)cs1)c1nc2ccccc2o1 [Compound 358] | 110 nM | 1200 nM
35 | CC[C@H](NC(=O)c1cc(-c2cc(C(=O)NC(C)C)c3nc(N)nn3c2)cs1)c1ccc(F)cc1 [Compound 108] | 4 nM | 25 nM
36 | COc1cccc(C(CCO)NC(=O)c2cc(-c3ccc4nc(N)nn4c3)cs2)c1 (centres unmarked) [Compound 290] | 620 nM | 7400 nM
37 | Nc1nc2ccc(-c3csc(C(=O)NCC4CCOCC4)c3)cn2n1 [Compound 188] | 2000 nM | > 30000 nM
38 | COc1ccc(C(C)(C)NC(=O)c2cc(-c3cc(C(=O)NC(C)C)c4nc(N)nn4c3)cs2)cc1 [Compound 124] | 17 nM | 330 nM
39 | CC[C@H](C)NC(=O)c1cc(-c2csc(C(=O)NCc3ccccc3)c2)cn2nc(N)nc12 [Compound 87] | 11 nM | 48 nM
40 | Nc1nc2ccc(-c3csc(C(=O)NCc4ccc(CN5CCOCC5)cc4)c3)cn2n1 [Compound 342] | 520 nM | 17000 nM
41 | CN(CCc1ccccc1)C(=O)c1cc(-c2ccc3nc(N)nn3c2)cs1 [Compound 284] | 2600 nM | > 30000 nM

More lines, in order of falling IC50 [1], values ahead:

Row | IC50 [1] | IC50 [2] | Compound
42 | 3400 nM | > 30000 nM | CNS(=O)(=O)c1cc(-c2csc(C(=O)N[C@@H](C)c3ccc(F)cc3)c2)cn2nc(N)nc12 [Compound 386]
43 | 1600 nM | > 30000 nM | Nc1nc2ccc(-c3csc(C(=O)NCC4CCCOC4)c3)cn2n1 (centres unmarked) [Compound 197]
44 | 1390 nM | 5700 nM | Nc1nc2ccc(-c3csc(C(=O)NCc4cc(F)cc(F)c4)c3)cn2n1 [Compound 222]
45 | 670 nM | 13000 nM | Cc1cccc(C)c1NC(=O)c1cc(-c2ccn3nc(N)nc3c2)cs1 [Compound 368]
46 | 580 nM | 14000 nM | Nc1nc2ccc(-c3csc(C(=O)NCc4ccsc4)c3)cn2n1 [Compound 273]
47 | 400 nM | > 30000 nM | CC(NC(=O)c1cc(-c2ccc3nc(N)nn3c2)cs1)c1ccc(F)cc1F (centres unmarked) [Compound 360]
48 | 350 nM | 4200 nM | C[C@@H](NC(=O)c1cc(-c2ccc3nc(N)nn3c2)cs1)c1ccc(F)cc1 [Compound 298]
49 | 280 nM | > 30000 nM | C[C@@H](NC(=O)c1cc(-c2ccc3nc(N)nn3c2)cs1)c1ccccc1 [Compound 325]
50 | 130 nM | 1200 nM | CNC(=O)c1cc(-c2csc(C(=O)NCc3ccc(F)cc3)c2)cn2nc(N)nc12 [Compound 9]
51 | 130 nM | 3600 nM | C[C@H](NC(=O)c1cc(-c2cc(C(=O)NC3CNC(=O)C3)c3nc(N)nn3c2)cs1)c1ccc(F)cc1 (single isomer, unassigned) [Compound 47]
52 | 130 nM | > 30000 nM | C[C@H](NC(=O)c1cc(-c2ccc3nc(N)nn3c2)cs1)c1cccc(Cl)c1 [Compound 265]
53 | 73 nM | 4200 nM | CC(C)NC(=O)c1cc(-c2csc(C(=O)N[C@@H](C)c3ccc(C(F)(F)F)cc3)c2)cn2nc(N)nc12 [Compound 83]
54 | 63 nM | 5600 nM | CC[C@@H](C)NC(=O)c1cc(-c2csc(C(=O)N[C@H](CC)c3ccc(F)cc3)c2)cn2nc(N)nc12 [Compound 136]
55 | 55 nM | 2000 nM | C[C@H](NC(=O)c1cc(-c2cc(C(=O)NC3CCC3)c3nc(N)nn3c2)cs1)c1ccc(C(F)(F)F)cc1 [Compound 92]
56 | 33 nM | 560 nM | CCNC(=O)c1cc(-c2csc(C(=O)N[C@@H](C)c3ccc(F)cc3)c2)cc2nc(N)nn12 [Compound 158]
57 | 31 nM | 150 nM | C[C@H](NC(=O)c1cc(-c2cc(C(=O)NC(C)(C)C)c3nc(N)nn3c2)cs1)c1ccc(F)cc1 [Compound 17]
58 | 6.9 nM | 110 nM | CC(C)NC(=O)c1cc(-c2csc(C(=O)N[C@H]3CCOc4ccccc43)c2)cn2nc(N)nc12 [Compound 120]
59 | 4.85 nM | 55 nM | CC(NC(=O)c1cc(-c2csc(C(=O)N[C@@H](C)c3ccccc3)c2)cn2nc(N)nc12)C(F)(F)F (single isomer, unassigned) [Compound 71]
60 | 4.15 nM | 57 nM | CC[C@H](NC(=O)c1cc(-c2cc(C(=O)NC(C)C)n3nc(N)nc3c2)cs1)c1ccccc1 [Compound 152]
61 | 3.3 nM | 48 nM | COC[C@H](NC(=O)c1cc(-c2cc(C(=O)NC(C)C)c3nc(N)nn3c2)cs1)c1ccccc1 (stereo in doubt) [Compound 91]
